According to patent publication US8247211B2, “Glycopeptide antibiotics” (American Cyanamid Company, priority 2001, dated 2012):
In brackets after ≈: the same amount, converted by molar mass.

How the values were obtained:
[1] = test system: Escherichia coli; assay: In vitro antibacterial evaluation: minimum inhibitory concentration (MIC), broth dilution method; assay type: cell-based; conditions: strain GC 4560
How it was run: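 NCCLS M7-A2 broth dilution; Muller-Hinton II […]; 5×10^5 CFU/mL; 64-0.06 μg/mL. MIC = lowest concentration with no growth.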

[2] = test system: Enterococcus sp.; assay: as above; assay type: cell-based; conditions: for MIC Enterococcus faecalis (ATCC 29212): strain ATCC 29212; for MIC Enterococcus faecium (GC 2243): strain GC 2243; for MIC Enterococcus faecalis (GC 4552): strain GC 4552; for MIC Enterococcus faecalis (GC 4553): strain GC 4553; for MIC Enterococcus faecium (GC 4556): strain GC 4556; for MIC Enterococcus faecium (GC 4557): strain GC 4557; for MIC Enterococcus avium (GC 4558): strain GC 4558; for MIC Enterococcus faecalis (GC 6189): strain GC 6189
How it was run: (§1)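 NCCLS M7-A2 broth dilution with Mueller-Hinton II, testing 64-0.06 μg/mL antibiotic against 5×10^5 CFU/mL inocula. Test strains include recent methicillin-, penicillin- or vancomycin-resistant clinical isolates. MIC is the lowest concentration preventing growth.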

[3] = test system: Staphylococcus sp.; assay: as above; assay type: cell-based; conditions: broth dilution, 18 hours at 35° C.; for MIC Staphylococcus aureus-SMITH (GC 4543): strain SMITH GC 4543
How it was run: as §1

[4] = test system: Streptococcus sp.; assay: as above; assay type: cell-based
How it was run: as §1

[5] = test system: Staphylococcus aureus-SMITH (GC 4543); assay: Acute lethal infection in mice (ED50); assay type: in vivo; conditions: female CD-1 mice, intraperitoneal challenge, intravenous dose 30 min. after infection, 7 day survival ratios
How it was run: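 Lethal systemic infection model: female CD-1 mice, 20 ± 1-2 g, intraperitoneal challenge. Single intravenous treatment 30 min after infection; 7-day survival, pooled from 3 tests, gives ED50.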

[6] = Anatomic pathology (heart and kidney histopathology) in mice; assay type: in vivo, CD-1 mice; conditions: 20 mg/kg intravenously daily for 9 days, microscopic histopathology on day 10
How it was run: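 Juvenile CD-1 mice (20 days old; 5 vehicle, 5 treated) received glycopeptide antibiotic 20 mg/kg i.v. daily for 9 days. Necropsied tissues formalin-fixed, paraffin-embedded, H&E stained and examined microscopically; findings graded slight to severe versus controls.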

[7] = Enterococcus faecalis (GC 2242), broth dilution, 18 hours at 35° C.
[8] = Enterococcus faecalis (GC 2691), broth dilution, 18 hours at 35° C.
[9] = Enterococcus faecalis (GC 3059), broth dilution, 18 hours at 35° C.
[10] = Streptococcus agalactiae (GC 4564), broth dilution, 18 hours at 35° C.
[11] = Streptococcus pneumoniae (ATCC 6301), broth dilution, 18 hours at 35° C.
[12] = Streptococcus pneumoniae (GC 4565), broth dilution, 18 hours at 35° C.
[13] = Streptococcus pyogenes (GC 4563), broth dilution, 18 hours at 35° C.

## CC(c1ccccc1)C1NC(=O)CNC(=O)C(CO)NC(=O)C(C(O)C2CN(Cc3ccc(C(C)(C)C)cc3)C(=N)N2C2OC(CO)C(O)C(O)C2O)NC(=O)C(C(O)C2CNC(=N)N2)NC(=O)C(Cc2ccc(OC3OC(CO)C(OC4OC5COC6(OC5C(O)C4O)C4CC5CC(C4)CC6C5)C(O)C3O)cc2)NC1=O (stereo not drawn) [Example 77]
[1]
  MIC Escherichia coli (GC 4560): 4 µg/mL (≈ 2.54 µM)
[2]; [7]
  MIC Enterococcus faecalis (GC 2242): 16 µg/mL (≈ 10.2 µM)
[2]; [8]
  MIC Enterococcus faecalis (GC 2691): 16 µg/mL (≈ 10.2 µM)
[2]; [9]
  MIC Enterococcus faecalis (GC 3059): 16 µg/mL (≈ 10.2 µM)
[2]
  MIC Enterococcus faecalis (ATCC 29212): 16 µg/mL (≈ 10.2 µM)
  MIC Enterococcus faecium (GC 2243): 8 µg/mL (≈ 5.08 µM)
  MIC Enterococcus faecalis (GC 4552): 16 µg/mL (≈ 10.2 µM)
  MIC Enterococcus faecalis (GC 4553): 8 µg/mL (≈ 5.08 µM)
  MIC Enterococcus faecium (GC 4556): 16 µg/mL (≈ 10.2 µM)
  MIC Enterococcus faecium (GC 4557): 1 to 2 µg/mL
  MIC Enterococcus avium (GC 4558): 4 µg/mL (≈ 2.54 µM)
  MIC Enterococcus faecalis (GC 6189): 16 µg/mL (≈ 10.2 µM)
[2]; strain GC 2242
  MIC Enterococcus faecalis (GC 2242): 16 µg/mL (≈ 10.2 µM)
[2]; strain GC 2691
  MIC Enterococcus faecalis (GC 2691): 16 µg/mL (≈ 10.2 µM)
[2]; strain GC 3059
  MIC Enterococcus faecalis (GC 3059): 16 µg/mL (≈ 10.2 µM)
[3]
  MIC Coagulase Negative Staphylococcus (GC 4547): 4 µg/mL (≈ 2.54 µM)
  MIC Coagulase Negative Staphylococcus (GC 4548): 4 µg/mL (≈ 2.54 µM)
  MIC Coagulase Negative Staphylococcus (GC 4549): 4 to 8 µg/mL
  MIC Coagulase Negative Staphylococcus (GC 4551): 8 µg/mL (≈ 5.08 µM)
  MIC Coagulase Negative Staphylococcus (GC 6257): 2 µg/mL (≈ 1.27 µM)
  MIC Staphylococcus aureus (ATCC 29213): 8 to 16 µg/mL
  MIC Staphylococcus aureus (GC 1131): 16 µg/mL (≈ 10.2 µM)
  MIC Staphylococcus aureus (GC 3051): 8 to 16 µg/mL
  MIC Staphylococcus aureus (GC 3053): 16 µg/mL (≈ 10.2 µM)
  MIC Staphylococcus aureus (GC 4541): 4 to 8 µg/mL
  MIC Staphylococcus aureus (GC 4542): 8 to 16 µg/mL
  MIC Staphylococcus aureus (GC 4544): 16 µg/mL (≈ 10.2 µM)
  MIC Staphylococcus aureus (GC 4545): 8 µg/mL (≈ 5.08 µM)
  MIC Staphylococcus aureus SMITH (GC 4543): 8 µg/mL (≈ 5.08 µM)
  MIC Staphylococcus haemolyticus (GC 4546): 4 to 8 µg/mL
  MIC Staphylococcus aureus-SMITH (GC 4543): 8 µg/mL (≈ 5.08 µM)
[4]; [10]
  MIC Streptococcus agalactiae (GC 4564): 1 µg/mL (≈ 0.635 µM)
[4]; [11]
  MIC Streptococcus pneumoniae (ATCC 6301): 2 µg/mL (≈ 1.27 µM)
[4]; [12]
  MIC Streptococcus pneumoniae (GC 4565): 2 to 4 µg/mL
[4]; [13]
  MIC Streptococcus pyogenes (GC 4563): 1 µg/mL (≈ 0.635 µM)
[4]; strain ATCC 6301
  MIC Streptococcus pneumoniae (ATCC 6301): 2 µg/mL (≈ 1.27 µM)
[4]; strain GC 4563
  MIC Streptococcus pyogenes (GC 4563): 1 µg/mL (≈ 0.635 µM)
[4]; strain GC 4564
  MIC Streptococcus agalactiae (GC 4564): 1 µg/mL (≈ 0.635 µM)
[4]; strain GC 4565
  MIC Streptococcus pneumoniae (GC 4565): 2 to 4 µg/mL
[5]
  median effective dose (ED50), Staphylococcus aureus-SMITH (GC 4543): 4 mg/kg
[6]
  Anatomical Pathology (Day 10), Heart: 0
  Anatomical Pathology (Day 10), Kidney: 0

## CC(c1ccccc1)C1NC(=O)CNC(=O)C(CO)NC(=O)C(C(O)C2CN(Cc3ccc4ccccc4c3)C(=N)N2C2OC(CO)C(O)C(O)C2O)NC(=O)C(C(O)C2CNC(=N)N2)NC(=O)C(Cc2ccc(OC3OC(CO)C(OC4OC5COC6(OC5C(O)C4O)C4CC5CC(C4)CC6C5)C(O)C3O)cc2)NC1=O (stereo not drawn) [Example 78]
[1]
  MIC Escherichia coli (GC 4560): 4 µg/mL (≈ 2.55 µM)
[2]; [7]
  MIC Enterococcus faecalis (GC 2242): 16 µg/mL (≈ 10.2 µM)
[2]; [8]
  MIC Enterococcus faecalis (GC 2691): 16 µg/mL (≈ 10.2 µM)
[2]; [9]
  MIC Enterococcus faecalis (GC 3059): 16 µg/mL (≈ 10.2 µM)
[2]
  MIC Enterococcus faecalis (ATCC 29212): 8 µg/mL (≈ 5.1 µM)
  MIC Enterococcus faecium (GC 2243): 8 µg/mL (≈ 5.1 µM)
  MIC Enterococcus faecalis (GC 4552): 8 µg/mL (≈ 5.1 µM)
  MIC Enterococcus faecalis (GC 4553): 8 µg/mL (≈ 5.1 µM)
  MIC Enterococcus faecium (GC 4556): 16 µg/mL (≈ 10.2 µM)
  MIC Enterococcus faecium (GC 4557): 2 µg/mL (≈ 1.28 µM)
  MIC Enterococcus avium (GC 4558): 4 µg/mL (≈ 2.55 µM)
  MIC Enterococcus faecalis (GC 6189): 16 µg/mL (≈ 10.2 µM)
[2]; strain GC 2242
  MIC Enterococcus faecalis (GC 2242): 16 µg/mL (≈ 10.2 µM)
[2]; strain GC 2691
  MIC Enterococcus faecalis (GC 2691): 16 µg/mL (≈ 10.2 µM)
[2]; strain GC 3059
  MIC Enterococcus faecalis (GC 3059): 16 µg/mL (≈ 10.2 µM)
[2]; strain GC 4554
  MIC Enterococcus faecalis (GC 4554): 16 µg/mL (≈ 10.2 µM)
[3]
  MIC Coagulase Negative Staphylococcus (GC 4547): 4 µg/mL (≈ 2.55 µM)
  MIC Coagulase Negative Staphylococcus (GC 4548): 4 µg/mL (≈ 2.55 µM)
  MIC Coagulase Negative Staphylococcus (GC 4549): 8 µg/mL (≈ 5.1 µM)
  MIC Coagulase Negative Staphylococcus (GC 4551): 8 µg/mL (≈ 5.1 µM)
  MIC Coagulase Negative Staphylococcus (GC 6257): 2 µg/mL (≈ 1.28 µM)
  MIC Staphylococcus aureus (ATCC 29213): 8 µg/mL (≈ 5.1 µM)
  MIC Staphylococcus aureus (GC 1131): 8 µg/mL (≈ 5.1 µM)
  MIC Staphylococcus aureus (GC 3051): 8 µg/mL (≈ 5.1 µM)
  MIC Staphylococcus aureus (GC 3053): 8 µg/mL (≈ 5.1 µM)
  MIC Staphylococcus aureus (GC 4541): 4 µg/mL (≈ 2.55 µM)
  MIC Staphylococcus aureus (GC 4542): 8 µg/mL (≈ 5.1 µM)
  MIC Staphylococcus aureus (GC 4544): 8 µg/mL (≈ 5.1 µM)
  MIC Staphylococcus aureus (GC 4545): 8 µg/mL (≈ 5.1 µM)
  MIC Staphylococcus aureus SMITH (GC 4543): 4 µg/mL (≈ 2.55 µM)
  MIC Staphylococcus haemolyticus (GC 4546): 4 µg/mL (≈ 2.55 µM)
  MIC Staphylococcus aureus-SMITH (GC 4543): 4 µg/mL (≈ 2.55 µM)
[4]; [10]
  MIC Streptococcus agalactiae (GC 4564): 1 µg/mL (≈ 0.638 µM)
[4]; [11]
  MIC Streptococcus pneumoniae (ATCC 6301): 1 µg/mL (≈ 0.638 µM)
[4]; Streptococcus pneumoniae (GC 1894), broth dilution, 18 hours at 35° C.
  MIC Streptococcus pneumoniae (GC 1894): 0.25 µg/mL (≈ 0.159 µM)
[4]; [12]
  MIC Streptococcus pneumoniae (GC 4565): 2 µg/mL (≈ 1.28 µM)
[4]; [13]
  MIC Streptococcus pyogenes (GC 4563): 0.5 µg/mL (≈ 0.319 µM)
[4]; strain ATCC 6301
  MIC Streptococcus pneumoniae (ATCC 6301): 1 µg/mL (≈ 0.638 µM)
[4]; strain GC 1894
  MIC Streptococcus pneumoniae (GC 1894): 0.25 µg/mL (≈ 0.159 µM)
[4]; strain GC 4563
  MIC Streptococcus pyogenes (GC 4563): 0.5 µg/mL (≈ 0.319 µM)
[4]; strain GC 4564
  MIC Streptococcus agalactiae (GC 4564): 1 µg/mL (≈ 0.638 µM)
[4]; strain GC 4565
  MIC Streptococcus pneumoniae (GC 4565): 2 µg/mL (≈ 1.28 µM)
[5]
  median effective dose (ED50), Staphylococcus aureus-SMITH (GC 4543): 2 mg/kg
[6]
  Anatomical Pathology (Day 10), Heart: 0
  Anatomical Pathology (Day 10), Kidney: ++
